The experiment has as its target T1, human full-length MKNK1 (Homo sapiens, UniProt Q9BUB5, T385D).
T1 construct: GST (N); purchased Carna Biosciences 02-145; host or cells: insect cells (baculovirus expression system)
Briefly: MKNK1 kinase high ATP assay (TR-FRET). It counts as biochemical. The conditions noted are these: high ATP (2 mM final), 15 min preincubation with enzyme. The procedure:
MKNK1-inhibitory activity at high ATP of compounds of the present invention after their preincubation with MKNK1 was quantified employing the TR-FRET-based MKNK1 high ATP assay as described in the following paragraphs.
A recombinant fusion protein of Glutathione-S-Transferase (GST, N-terminally) and human full-length MKNK1 (amino acids 1-424 and T344D of accession number BAA 19885.1), expressed in insect cells using baculovirus expression system and purified via glutathione sepharose affinity chromatography, was purchased from Carna Biosciences (product no 02-145) and used as enzyme. As substrate for the kinase reaction the biotinylated peptide biotin-Ahx-IKKRKLTRRKSLKG (C-terminus in amide form) was used, which can be purchased e.g. from the company Biosyntan (Berlin-Buch, Germany).
For the assay 50 nL of a 100 fold concentrated solution of the test compound in DMSO was pipetted into a black low volume 384 well microtiter plate (Greiner Bio-One, Frickenhausen, Germany), 2 μL of a solution of MKNK1 in aqueous assay buffer [50 mM HEPES pH 7.5, 5 mM MgCl2, 1.0 mM dithiothreitol, 0.005% (v/v) Nonidet-P40 (Sigma)] was added and the mixture was incubated for 15 min at 22° C. to allow pre-binding of the test compounds to the enzyme before the start of the kinase reaction. Then the kinase reaction was started by the addition of 3 μL of a solution of adenosine-tri-phosphate (ATP, 3.3 mM=>final conc. in the 5 μL assay volume is 2 mM) and substrate (0.1 μM=>final conc. in the 5 μL assay volume is 0.06 μM) in assay buffer and the resulting mixture was incubated for a reaction time of 30 min at 22° C. The concentration of MKNK1 was adjusted depending of the activity of the enzyme lot and was chosen appropriate to have the assay in the linear range, typical concentrations were in the range of 0.003 μg/mL. The reaction was stopped by the addition of 5 μL of a solution of TR-FRET detection reagents (5 nM streptavidine-XL665 [Cisbio Bioassays, Codolet, France] and 1 nM anti-ribosomal protein S6 (pSer236)-antibody from Invitrogen [#44921G] and 1 nM LANCE EU-W1024 labeled ProteinG [Perkin-Elmer, product no. AD0071]) in an aqueous EDTA-solution (100 mM EDTA, 0.1% (w/v) bovine serum albumin in 50 mM HEPES pH 7.5).
The resulting mixture was incubated for 1 h at 22° C. to allow the formation of complex between the phosphorylated biotinylated peptide and the detection reagents. Subsequently the amount of phosphorylated substrate was evaluated by measurement of the resonance energy transfer from the Eu-chelate to the streptavidine-XL. Therefore, the fluorescence emissions at 620 nm and 665 nm after excitation at 350 nm were measured in a TR-FRET reader, e.g. a Rubystar (BMG Labtechnologies, Offenburg, Germany) or a Viewlux (Perkin-Elmer). The ratio of the emissions at 665 nm and at […] was taken as the measure for the amount of phosphorylated substrate. The data were normalised (enzyme reaction without inhibitor=0% inhibition, all other assay components but no enzyme=100% inhibition).
(In general: In TR-FRET formats the signal depends on donor and acceptor labels being close together.)
T1 sequence (Q9BUB5 1-424 isoform Q9BUB5-2 T344D): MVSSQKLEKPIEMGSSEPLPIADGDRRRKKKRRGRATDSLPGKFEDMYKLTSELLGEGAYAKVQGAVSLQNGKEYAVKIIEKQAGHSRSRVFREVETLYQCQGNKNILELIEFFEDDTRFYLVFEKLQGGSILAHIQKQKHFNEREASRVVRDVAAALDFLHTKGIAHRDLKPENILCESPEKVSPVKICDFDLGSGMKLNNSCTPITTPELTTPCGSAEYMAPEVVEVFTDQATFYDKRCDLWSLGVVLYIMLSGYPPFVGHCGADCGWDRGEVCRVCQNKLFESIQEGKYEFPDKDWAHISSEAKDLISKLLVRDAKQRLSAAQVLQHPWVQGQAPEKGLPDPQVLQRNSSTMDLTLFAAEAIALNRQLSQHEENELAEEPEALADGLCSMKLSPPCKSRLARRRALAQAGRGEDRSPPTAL
Usually IC50 stands for the concentration at which inhibition is half-maximal. A low value points to inhibition by little substance. In turn, `CN1CCN(C(=O)c2cc3c(Nc4ccc5[nH]ncc5c4)ncnc3[nH]2)CC1` [Example 23, [4-(1H-Indazol-5-ylamino)-7H-pyrrolo[2,3-d]pyrimidin-6-yl](4-methylpiperazin-1-yl)methanone] had an IC50 of 9 nM. In other words, the single-digit nanomolar range.

Compound `Fc1ccc(-c2c[nH]c3ncnc(Nc4ccc5[nH]ncc5c4)c23)cc1` [Example 12, 5-(4-Fluorophenyl)-N-(1H-indazol-5-yl)-7H-pyrrolo[2,3-d]pyrimidin-4-amine] registered an IC50 of 16 nM.

Regarding `C[C@H]1COCCN1C(=O)c1[nH]c2ncnc(Nc3ccc4[nH]ncc4c3)c2c1Br` [Example 43, [5-Bromo-4-(1H-indazol-5-ylamino)-7H-pyrrolo[2,3-d]pyrimidin-6-yl][(3S)-3-methylmorpholin-4-yl]methanone], the IC50 came out at 75 nM.

`OCc1c[nH]c2ncnc(Nc3ccc4[nH]ncc4c3)c12` [Example 41, [4-(1H-indazol-5-ylamino)-7H-pyrrolo[2,3-d]pyrimidin-5-yl]methanol] registered an IC50 of 37 nM. Compared with the last compound, the IC50 is about 2-fold lower.

In turn, `CN(C)CCCNC(=O)c1cc2c(Nc3ccc4[nH]ncc4c3)ncnc2[nH]1` [Example 27, N-[3-(Dimethylamino)propyl]-4-(1H-indazol-5-ylamino)-7H-pyrrolo[2,3-d]pyrimidine-6-carboxamide] displayed an IC50 of 5 nM.

On to `O=C(NC1CCOCC1)c1cc2c(Nc3ccc4[nH]ncc4c3)ncnc2[nH]1` [Example 25, 4-(1H-Indazol-5-ylamino)-N-(tetrahydro-2H-pyran-4-yl)-7H-pyrrolo[2,3-d]pyrimidine-6-carboxamide], for which the 50% inhibitory concentration (IC50) came out at 8 nM.

Take `C[C@@H]1COCCN1C(=O)c1[nH]c2ncnc(Nc3ccc4[nH]ncc4c3)c2c1Br` [Example 42, [5-Bromo-4-(1H-indazol-5-ylamino)-7H-pyrrolo[2,3-d]pyrimidin-6-yl][(3R)-3-methylmorpholin-4-yl]methanone]: it took 58 nM to reach half-maximal inhibition (IC50).

In the case of `C1=C(c2cc3c(Nc4ccc5[nH]ncc5c4)ncnc3[nH]2)CCOC1` [Example 16, 6-(3,6-Dihydro-2H-pyran-4-yl)-N-(1H-indazol-5-yl)-7H-pyrrolo[2,3-d]pyrimidin-4-amine], it took 2 nM to reach half-maximal inhibition (IC50).

`Brc1c[nH]c2ncnc(Nc3ccc4[nH]ncc4c3)c12` [Example 2, 5-Bromo-N-(1H-indazol-5-yl)-7H-pyrrolo[2,3-d]pyrimidin-4-amine] gave a 50% inhibitory concentration (IC50) of 10 nM.

Turning to `c1nc(Nc2ccc3[nH]ncc3c2)c2cc(C3CCOCC3)[nH]c2n1` [Example 24, N-(1H-Indazol-5-yl)-6-(tetrahydro-2H-pyran-4-yl)-7H-pyrrolo[2,3-d]pyrimidin-4-amine], the IC50 was 29 nM.

The compound `O=C(c1cc2c(Nc3ccc4[nH]ncc4c3)ncnc2[nH]1)N1CCCC1` [Example 21, [4-(1H-Indazol-5-ylamino)-7H-pyrrolo[2,3-d]pyrimidin-6-yl](pyrrolidin-1-yl)methanone] gave an IC50 of 8 nM.

In turn, `CC(C)c1cc2c(Nc3ccc4[nH]ncc4c3)ncnc2[nH]1` [Example 19, N-(1H-Indazol-5-yl)-6-(propan-2-yl)-7H-pyrrolo[2,3-d]pyrimidin-4-amine] showed a 50% inhibitory concentration (IC50) of 39 nM.

`CCc1[nH]c2ncnc(Nc3ccc4[nH]ncc4c3)c2c1C` [Example 1, 6-Ethyl-N-(1H-indazol-5-yl)-5-methyl-7H-pyrrolo[2,3-d]pyrimidin-4-amine] gave an IC50 of 58 nM. This IC50 and that of the compound before are within 1.5-fold of each other.

In the case of `C1=C(c2c[nH]c3ncnc(Nc4ccc5[nH]ncc5c4)c23)CCOC1` [Example 17, 5-(3,6-Dihydro-2H-pyran-4-yl)-N-(1H-indazol-5-yl)-7H-pyrrolo[2,3-d]pyrimidin-4-amine], the IC50 was determined as 12 nM.

Take `Cc1ccc(S(=O)(=O)c2cc3c(Nc4ccc5[nH]ncc5c4)ncnc3[nH]2)cc1` [Example 37, N-(1H-Indazol-5-yl)-6-[(4-methylphenyl)sulfonyl]-7H-pyrrolo[2,3-d]pyrimidin-4-amine]: the IC50 amounted to 2 nM.

Turning to `CCCCNC(=O)c1cc2c(Nc3ccc4[nH]ncc4c3)ncnc2[nH]1` [Example 22, N-Butyl-4-(1H-indazol-5-ylamino)-7H-pyrrolo[2,3-d]pyrimidine-6-carboxamide], it took 5 nM to reach half-maximal inhibition (IC50).

`FC(F)(F)c1c[nH]c2ncnc(Nc3ccc4[nH]ncc4c3)c12` [Example 35, N-(1H-Indazol-5-yl)-5-(trifluoromethyl)-7H-pyrrolo[2,3-d]pyrimidin-4-amine] showed an IC50 of 37 nM.

In turn, `Cc1c[nH]c2ncnc(Nc3ccc4[nH]ncc4c3)c12` [Example 18, N-(1H-Indazol-5-yl)-5-methyl-7H-pyrrolo[2,3-d]pyrimidin-4-amine] displayed an IC50 of 22 nM. Compared with the last compound, the IC50 is about 1.7-fold lower.

The compound `c1cc(-c2c[nH]c3ncnc(Nc4ccc5[nH]ncc5c4)c23)ccn1` [Example 14, N-(1H-Indazol-5-yl)-5-(pyridin-4-yl)-7H-pyrrolo[2,3-d]pyrimidin-4-amine] came in with an IC50 of 6 nM.

As to `Cc1c(C(=O)O)[nH]c2ncnc(Nc3ccc4[nH]ncc4c3)c12` [Example 32, 4-(1H-Indazol-5-ylamino)-5-methyl-7H-pyrrolo[2,3-d]pyrimidine-6-carboxylic acid], the IC50 was 18 nM.

On to `c1ccc(-c2c[nH]c3ncnc(Nc4ccc5[nH]ncc5c4)c23)cc1` [Example 15, N-(1H-Indazol-5-yl)-5-phenyl-7H-pyrrolo[2,3-d]pyrimidin-4-amine], for which the 50% inhibitory concentration (IC50) stood at 16 nM.

With `C(=C\c1cc2c(Nc3ccc4[nH]ncc4c3)ncnc2[nH]1)/c1ccccc1` [Example 10, N-(1H-Indazol-5-yl)-6-[(E)-2-phenylethenyl]-7H-pyrrolo[2,3-d]pyrimidin-4-amine], the concentration for half-maximal inhibition (IC50) amounted to 6 nM.

In turn, `CCc1c[nH]c2ncnc(Nc3ccc4[nH]ncc4c3)c12` [Example 40, 5-Ethyl-N-(1H-indazol-5-yl)-7H-pyrrolo[2,3-d]pyrimidin-4-amine] had an IC50 of 29 nM.

`CCOC(=O)c1[nH]c2ncnc(Nc3ccc4[nH]ncc4c3)c2c1C` [Example 29, Ethyl 4-(1H-indazol-5-ylamino)-5-methyl-7H-pyrrolo[2,3-d]pyrimidine-6-carboxylate] yielded an IC50 of 13 nM. Compared with the last compound, the IC50 is about 2.2-fold lower.

Take `c1ccc(CCc2cc3c(Nc4ccc5[nH]ncc5c4)ncnc3[nH]2)cc1` [Example 26, N-(1H-Indazol-5-yl)-6-(2-phenylethyl)-7H-pyrrolo[2,3-d]pyrimidin-4-amine]: the half-inhibitory concentration (IC50) is 80 nM.

The compound `Cc1cc2c(Nc3ccc4[nH]ncc4c3)ncnc2[nH]1` [Example 7, N-(1H-Indazol-5-yl)-6-methyl-7H-pyrrolo[2,3-d]pyrimidin-4-amine] registered an IC50 of 31 nM.

Take `CC(C)Cc1[nH]c2ncnc(Nc3ccc4[nH]ncc4c3)c2c1C(C)C` [Example 39, N-(1H-Indazol-5-yl)-6-(2-methylpropyl)-5-(propan-2-yl)-7H-pyrrolo[2,3-d]pyrimidin-4-amine]: the IC50 was determined as 21 nM.

On to `O=S(=O)(c1ccc(Cl)cc1)c1cc2c(Nc3ccc4[nH]ncc4c3)ncnc2[nH]1` [Example 38, 6-[(4-Chlorophenyl)sulfonyl]-N-(1H-indazol-5-yl)-7H-pyrrolo[2,3-d]pyrimidin-4-amine], for which half-maximal inhibition (IC50) required 1 nM.

Turning to `O=C(O)c1[nH]c2ncnc(Nc3ccc4[nH]ncc4c3)c2c1Br` [Example 31, 5-Bromo-4-(1H-indazol-5-ylamino)-7H-pyrrolo[2,3-d]pyrimidine-6-carboxylic acid], 5 nM corresponded to half-maximal inhibition (IC50).

Consider `CCOC(=O)c1[nH]c2ncnc(Nc3ccc4[nH]ncc4c3)c2c1Br` [Example 30, Ethyl 5-bromo-4-(1H-indazol-5-ylamino)-7H-pyrrolo[2,3-d]pyrimidine-6-carboxylate], for which the concentration for half-maximal inhibition (IC50) was 3 nM.

Compound `O=C(NCCO)c1cc2c(Nc3ccc4[nH]ncc4c3)ncnc2[nH]1` [Example 20, N-(2-Hydroxyethyl)-4-(1H-indazol-5-ylamino)-7H-pyrrolo[2,3-d]pyrimidine-6-carboxamide] yielded an IC50 of 9 nM.

Consider `CCOC(=O)c1cc2c(Nc3ccc4[nH]ncc4c3)ncnc2[nH]1` [Example 4, Ethyl 4-(1H-indazol-5-ylamino)-7H-pyrrolo[2,3-d]pyrimidine-6-carboxylate], for which half-maximal inhibition (IC50) was put at 25 nM. Against the preceding compound, the IC50 is about 2.8-fold higher.

The values are drawn from patent publication US20150218173A1, “SUBSTITUTED INDAZOL-PYRROLOPYRIMIDINES USEFUL IN THE TREATMENT OF HYPERFOLIFERATIVE DISORDERS” (BAYER PHARMA AKTIENGESELLSCHAFT, priority 2012, published 2015).
